From article PMC5390315 (Scientific Reports, 2017)
Read-outs that look alike come from different tables or passages of the source.

What was measured:
A549 = assay: Antiproliferative MTT assay, A549; type: cell-based, human; conditions: Homo sapiens, A549, 72 h, mean ± SE
Description: (§1) Human T-cell leukemia (Jurkat) and human B-cell leukemia (SEM and RS4;11) cells were grown in RPMI-1640 medium (Gibco, Milano, Italy). Breast adenocarcinoma (MCF-7), human cervix carcinoma (HeLa), human lung adenocarcinoma (A549) and human colon adenocarcinoma (HT-29) cells were grown in DMEM medium (Gibco, Milano, Italy), all supplemented with 115 units/mL penicillin G (Gibco, Milano, Italy), 115 μg/mL streptomycin (Invitrogen, Milano, Italy), and 10% fetal bovine serum (FBS; Invitrogen, Milano, Italy). Stock solutions (10 mM) of the different compounds were obtained by dissolving them in DMSO. Individual wells of a 96-well tissue culture microtiter plate were inoculated with 100 μL of complete medium containing 8 × 10^3 cells. The plates were incubated at 37 °C in a humidified 5% CO2 incubator for 18 h prior to the experiments. After medium removal, 100 μL of fresh medium containing the test compound at different concentrations was added to each well in triplicate and incubated at 37 °C for 72 h. The percentage of DMSO in the medium never exceeded 0.25%. This was also the maximum DMSO concentration in all cell-based assays described below.

MCF-7 = assay: Antiproliferative MTT assay, MCF-7; type: cell-based, human; conditions: Homo sapiens, MCF7, 72 h, mean ± SE
Description: as §1

RS 4;11 = assay: Antiproliferative MTT assay, RS 4;11; type: cell-based, human; conditions: Homo sapiens, RS4-11, 72 h, mean ± SE
Description: as §1

SEM cells = assay: Antiproliferative MTT assay, SEM; type: cell-based, human; conditions: Homo sapiens, 72 h, mean ± SE
Description: as §1

[1] = test system: panel of seven human tumor cell lines; assay: Antiproliferative activity, range over panel of seven human tumor cell lines; type: cell-based; conditions: read-out: IC50 values, range over the cell line panel
Description: as §1

[2] = test system: B16 murine melanoma cells; assay: MTT assay on B16 murine melanoma cells; type: cell-based; conditions: Mus musculus
HUVECs = assay: Disruption of capillary-like tubes on Matrigel; type: cell-based, human; conditions: 100 nM (highest concentration), 24 h
Description: HUVECs were prepared from human umbilical cord veins, as previously described. The adherent cells were maintained in M200 medium supplemented with LSGS (Low Serum Growth Supplement), containing FBS, hydrocortisone, hEGF, bFGF, heparin, gentamycin/amphotericin (Life Technologies, Monza, Italy). Once confluent, the cells were detached by a trypsin–EDTA solution and used in experiments from the first to sixth passages.
Matrigel matrix (Basement Membrane Matrix, BD Biosciences, Italy) was kept at 4 °C for 3 h, when 230 μL of Matrigel solution was added to each well of a 24-well plate. After gelling at 37 °C for 30 min, gels were overlaid with 500 μL of medium containing 6 × 10^4 HUVECs. The cells were incubated over Matrigel for 6 h to allow capillary tubes to form. Different concentrations of test compound were added in the cultures and incubated for different times, and the disappearance of existing vasculature was monitored and photographed (five fields for each well: the four quadrants and the center) at a 10x magnification. Phase contrast images were recorded using a digital camera and saved as TIFF files. Image analysis was carried out using ImageJ image analysis software, and dimensional (percent area covered by HUVECs and total length of HUVECs network per field) and topological parameters (number of meshes and branching points per field) were determined. Values were expressed as percent change from control cultures grown with complete medium.

HeLa cells = assay: Western blot analysis of cell cycle and apoptosis proteins; type: cell-based, human
Description: HeLa cells were incubated in the presence of 4i and, after different times, were collected, centrifuged, and washed two times with ice cold phosphate buffered saline (PBS). The pellet was then resuspended in lysis buffer. After the cells were lysed on ice for 30 min, lysates were centrifuged at 15000× g at 4 °C for 10 min. The protein concentration in the supernatant was determined using the BCA Protein Assay (Pierce, Italy). Equal amounts of protein (10 μg) were resolved using sodium dodecyl sulfate-polyacrylamide gel electrophoresis (SDS-PAGE) (Criterion Precast, BioRad, Italy) and transferred to a PVDF Hybond-P membrane (GE Healthcare). Membranes were blocked with a bovine serum albumin solution (5% in Tween PBS 1X), the membranes being gently rotated overnight at 4 °C. Membranes were then incubated with primary antibodies against caspase-9, PARP, cdc25c, p-H2AX^Ser139, cyclin B, p-cdc2^Tyr15 (all from Cell Signaling) or β-actin (Sigma-Aldrich) for 2 h at room temperature. Membranes were next incubated with peroxidase labeled secondary antibodies for 60 min. All membranes were visualized using ECL Select (GE Healthcare), and images were acquired using an Uvitec-Alliance imaging system (Uvitec, Cambridge, UK). To ensure equal protein loading, each membrane was stripped and reprobed with anti-β-actin antibody.

SMILES: CCOc1ccc(-c2oc(C)nc2-c2cc(OC)c(OC)c(OC)c2)cc1 [Compound 4i, 4-(3,4,5-Trimethoxyphenyl)-5-(4-ethoxyphenyl)-2-methyloxazole]
- IC50 (A549): 0.5 ± 0.1 nM
- IC50 (MCF-7): 4.5 ± 1.8 nM
- IC50 (RS 4;11): 2.1 ± 0.2 nM
- IC50 (SEM cells): 6.1 ± 2.3 nM
- IC50 ([1]; Homo sapiens): 0.5 to 20 nM
- IC50 [1]: 0.5 to 20.2 nM
- IC50 [2]: 15.6 ± 1.9 nM
- antivascular effect on Matrigel preformed tubular structures (HUVECs): did not show a significant antivascular effect
- expression of Mcl-1 (HeLa cells; 100 nM): only slightly decreased
- total cdc25c expression (HeLa cells; 100 nM, 24 and 48 h): reduced
- XIAP expression (HeLa cells; 24 and 48 h): significantly reduced
- cyclin B1 expression (HeLa cells; 24 and 48 h, concentration dependent): marked increase
- PARP cleavage (HeLa cells; 50 or 100 nM, 24 and 48 h): appearance of its cleavage fragments
- phosphorylation of γH2A.X (Ser139) (HeLa cells; 48 h): great increase
- expression of phosphorylated cdc2 (HeLa cells; most noticeable at 24 h, 100 nM): decreased
